In brackets after ≈: the same amount, converted by molar mass. Read-outs that look alike come from different tables or passages of the source. Residues, ends and D or L forms follow the SMILES beside them. *: point of attachment. Myristoyl = CCCCCCCCCCCCCC(=O)*; Acm = CC(=O)NC*
How the values were obtained:
[1] = tested on: A. baumannii ATCC BAA-1605; format: cell-based, Acinetobacter baumannii; conditions: ATCC BAA-1605, 18 h
Text: (§1) The Acinetobacter baumannii ATCC BAA-1605, Candida albicans ATCC 10231, Enterococcus faecium ATCC 700221, Klebsiella aerogenes ATCC 13048 (previously known as Enterobacter aerogenes), Klebsiella pneumoniae ATCC 700603, Pseudomonas aeruginosa ATCC 9027, Staphylococcus aureus ATCC 25923 and MRSA ATCC 33591, were acquired from the American Type Culture Collection (ATCC). Before running the tests, beads with cryo-protected microorganisms were transferred into fresh MHB (BioMaxima, Lublin, Poland) for bacteria or RPMI-1640 for fungi and incubated for 24 h at 37 °C. Then, the culture was seeded on the Mueller-Hinton agar (MHA) plates (BioMaxima, Lublin, Poland) for bacteria or Sabouraud dextrose agar (SDA) plates (BioMaxima, Lublin, Poland) for fungi and incubated as just mentioned. Cell densities for all assays were adjusted spectrophotometrically (Multiskan™ GO Microplate Spectrophotometer, Thermo Fisher Scientific, Vantaa, Finland) at 600 nm for bacteria and at 530 nm for fungi.
(§2) The MICs were determined by broth microdilution method according to the Clinical and Laboratory Standard Institute guidelines. For this purpose initial inoculums of bacteria (5 × 10^5 CFU/mL) in MHB (BioMaxima, Lublin, Poland) and fungi (2 × 10^3 CFU/mL) in RPMI-1640 with 2% D-glucose (Merck, Darmstadt, Germany) prepared with MOPS (pH 7.0 ± 0.1 at 25 °C; Merck, Darmstadt, Germany) were exposed to the ranging concentration of lipopeptides (0.5–256 µg/mL) and incubated at 37 °C for 18 h and 24 h respectively. The experiments were conducted on 96-well microtiter polystyrene plates (Kartell, Italy). The MIC was taken as the lowest peptide concentration at which a noticeable growth of microorganisms was inhibited. All experiments were conducted in triplicate.

[2] = tested on: K. pneumoniae ATCC 700603; format: cell-based, Klebsiella pneumoniae; conditions: ATCC 700603, 18 h
Text: as §1, §2

K. aerogenes ATCC 13048 = format: cell-based, Klebsiella aerogenes; conditions: ATCC 13048, 18 h
Text: as §1, §2

C. albicans ATCC 10231 = format: cell-based, Candida albicans
Text: as §1, §2

[3] = Determination of peptide hydrophobicity with RP-HPLC (adjusted retention time); format: physicochemical; conditions: for tR’: Table 3, adjusted retention time as hydrophobicity, RP-HPLC C18, linear 10–55% acetonitrile over 60 min
Method: To determine peptide hydrophobicity, the Waters Alliance e2695 system with a Waters 2998 PDA Detector (software-Empower®3) was used. All analyses were carried out on a Phenomenex Luna C18(2) column (3.0 × 100 mm, 5 µm particle size, 100 Å pore size). The peptides were dissolved in water (0.1% TFA, v/v) to obtain a concentration of 1 g/L. UV detection at 214 nm was used, and aliquots (10 µL) were eluted with a linear 10–55% acetonitrile gradient in deionized water over 60 min at 25.0 ± 0.1 °C. The mobile phase flow rate was 0.5 mL/min. Both eluents contained 0.1% (v/v) of TFA. Each peptide sample was analyzed in triplicate.

S. aureus ATCC 25923 = format: cell-based, Staphylococcus aureus; conditions: ATCC 25923, 18 h
Text: as §1, §2

[4] = tested on: S. aureus ATCC 33591 (MRSA); format: cell-based, Staphylococcus aureus; conditions: ATCC 33591, 18 h
Text: as §1, §2

E. faecium ATCC 700221 = format: cell-based, Enterococcus faecium; conditions: ATCC 700221, 18 h
Text: as §1, §2

P. aeruginosa ATCC 9027 = format: cell-based, Pseudomonas aeruginosa; conditions: ATCC 9027, 18 h
Text: as §1, §2

[5] = tested on: human red blood cells (hRBCs); format: cell-based; conditions: red cells of human, 1 h
Method: The hemolysis assay was performed as described earlier according to the method of Avrahami and Shai. Fresh human red blood cells (hRBCs) with anticoagulant (EDTA) were rinsed three times with a PBS (Merck, Darmstadt, Germany) by centrifugation at 800× g for 10 min and resuspended in PBS. Lipopeptides were serially diluted on 96-well microtiter polystyrene plate and hRBCs were added to reach final volume of 100 µL. Peptide concentration ranged between 0.5 and 256 µg/mL and final hRBCs concentration was 4% (v/v). Controls for zero hemolysis (blank) and 100% hemolysis consisted of hRBCs suspended in PBS and 1% of Triton-X 100 (Merck, Darmstadt, Germany), respectively. The plate was incubated for 1 h at 37 °C and then centrifuged (800× g, 10 min, 4 °C). Subsequently, supernatant was […] to new microtiter plates and absorbance at 540 nm were measured. All experiments were conducted in triplicate. Protocol of the study received approval from the local Bioethics Committee at the Medical University of Gdańsk (NKBBN/262/2019).

[6] = 0.1% TFA, 25.0 °C, UV 214 nm, triplicate

SMILES | MIC A [1] [µg/mL] | MIC K [2] | MIC E2 (K. aerogenes ATCC 13048) | MIC CA (C. albicans ATCC 10231; C. albicans ATCC 10231, RPMI-1640 with 2% D-glucose, MOPS pH 7.0, 2 × 10^3 CFU/mL, 0.5–256 µg/mL, 37 °C, 24 h, triplicate) [µg/mL] | tR’ [3, 6] [min] | MIC SA (S. aureus ATCC 25923) | MIC S [4] | MIC E1 (E. faecium ATCC 700221) [µg/mL] | MIC PA (P. aeruginosa ATCC 9027) [µg/mL] | HC50 [5] | MIC CA (C. albicans ATCC 10231; ATCC 10231, 24 h, pH 7) [µg/mL] | tR’ (adjusted retention time) ([3]; Table 1 and b9, measure of hydrophobicity, RP-HPLC, Phenomenex Luna C18(2) 3.0 × 100 mm, 5 µm, linear 10–55% acetonitrile in water over 60 min, 0.1% TFA, 0.5 mL/min, 25.0 °C, UV 214 nm, peptide 1 g/L, triplicate) [min] | ∆tR ([3]; tR’ of the lipopeptide minus tR’ of C10-RR-NH2 or C12-RR-NH2, same RP-HPLC conditions) [min]
CCCCCCCCCCCCCCCCCC(=O)N[C@@H](CCCNC(=N)N)C(=O)N[C@@H](CCCNC(=N)N)C(N)=O [compound 6, C18-RR-NH2, reference compound] (HELM PEPTIDE1{[CCCCCCCCCCCCCCCCCC(=O)[*:2]].R.R.[am]}$$$$V2.0) | 32 (≈ 53.7 µM) | 16 µg/mL (≈ 26.9 µM) | 16 µg/mL (≈ 26.9 µM) |  | 53.39 | 16 µg/mL (≈ 26.9 µM) | 16 µg/mL (≈ 26.9 µM) | 8 (≈ 13.4 µM) | 64 (≈ 107 µM) | 25.19 (±0.67) µg/mL | 4 (≈ 6.71 µM) |  | 
CCCCCCCCCC(=O)N[C@@H](Cc1ccccc1)C(=O)N[C@@H](CCCNC(=N)N)C(=O)N[C@@H](CCCNC(=N)N)C(N)=O [compound 24, C10-FRR-NH2] (HELM PEPTIDE1{[CCCCCCCCCC(=O)[*:2]].F.R.R.[am]}$$$$V2.0) | 64 (≈ 101 µM) | >256 (-) µg/mL | >256 (-) µg/mL |  | 34.68 | 16 (>16) µg/mL | 16 (>16) µg/mL | 32 (≈ 50.7 µM) | 32 (≈ 50.7 µM) | >256 µg/mL | 64 (≈ 101 µM) | 34.68 | 10.38

Results, then the compound that gave them:

MIC A [1] [µg/mL] | MIC K [2] | MIC E2 (K. aerogenes ATCC 13048) | MIC CA (C. albicans ATCC 10231; C. albicans ATCC 10231, RPMI-1640 with 2% D-glucose, MOPS pH 7.0, 2 × 10^3 CFU/mL, 0.5–256 µg/mL, 37 °C, 24 h, triplicate) [µg/mL] | tR’ [3, 6] [min] | MIC SA (S. aureus ATCC 25923) | MIC S [4] | MIC E1 (E. faecium ATCC 700221) [µg/mL] | MIC PA (P. aeruginosa ATCC 9027) [µg/mL] | HC50 [5] | MIC CA (C. albicans ATCC 10231; ATCC 10231, 24 h, pH 7) [µg/mL] | tR’ (adjusted retention time) ([3]; Table 1 and b9, measure of hydrophobicity, RP-HPLC, Phenomenex Luna C18(2) 3.0 × 100 mm, 5 µm, linear 10–55% acetonitrile in water over 60 min, 0.1% TFA, 0.5 mL/min, 25.0 °C, UV 214 nm, peptide 1 g/L, triplicate) [min] | ∆tR ([3]; tR’ of the lipopeptide minus tR’ of C10-RR-NH2 or C12-RR-NH2, same RP-HPLC conditions) [min] | SMILES
32 (≈ 56.4 µM) | 32 µg/mL (≈ 56.4 µM) | 32 µg/mL (≈ 56.4 µM) | 4 (≈ 7.04 µM) | 46.51 | 8 µg/mL (≈ 14.1 µM) | 8 µg/mL (≈ 14.1 µM) | 8 (≈ 14.1 µM) | 16 (≈ 28.2 µM) | 22.91 (±1.18) µg/mL |  |  |  | CCCCCCCCCCCCCCCC(=O)N[C@@H](CCCNC(=N)N)C(=O)N[C@@H](CCCNC(=N)N)C(N)=O [compound 5, C16-RR-NH2, reference compound] (HELM PEPTIDE1{[CCCCCCCCCCCCCCCC(=O)[*:2]].R.R.[am]}$$$$V2.0)
32 (≈ 52.4 µM) | 256 µg/mL (≈ 419 µM) | 256 µg/mL (≈ 419 µM) |  | 40.92 | 8 µg/mL (≈ 13.1 µM) | 16 µg/mL (≈ 26.2 µM) | 8 (≈ 13.1 µM) | 32 (≈ 52.4 µM) | 41.08 (±0.62) µg/mL | 16 (≈ 26.2 µM) |  |  | CCCCCCCCCCCCCC(=O)N[C@@H](C)C(=O)N[C@@H](CCCNC(=N)N)C(=O)N[C@@H](CCCNC(=N)N)C(N)=O [compound 10, C14-ARR-NH2] (HELM PEPTIDE1{[CCCCCCCCCCCCCC(=O)[*:2]].A.R.R.[am]}$$$$V2.0)
16 (≈ 22.4 µM) | 256 µg/mL (≈ 359 µM) | 256 µg/mL (≈ 359 µM) |  | 43.24 | 16 µg/mL (≈ 22.4 µM) | 16 µg/mL (≈ 22.4 µM) | 8 (≈ 11.2 µM) | 16 (≈ 22.4 µM) | 39.72 (±1.25) µg/mL | 8 (≈ 11.2 µM) |  |  | CCCCCCCCCCCCCC(=O)N[C@@H](CSCNC(C)=O)C(=O)N[C@@H](CCCNC(=N)N)C(=O)N[C@@H](CCCNC(=N)N)C(N)=O [compound 14, C14-C(Acm)RR-NH2] (Myristoyl-Cys(Acm)-Arg-Arg-NH2)

— article PMC7024302, “Ultrashort Cationic Lipopeptides–Effect of N-Terminal Amino Acid and Fatty Acid Type on Antimicrobial Activity and Hemolysis” (Molecules, 2020)
